The test system of data set [1] is a variety of bacterial strains from common gut phyla, including E. coli. The data set can be described thus: Turbidity MIC assay, all strains together. The format is cell-based. Conditions: Escherichia coli; all strains tested; upper limit tested 200 μM; read-out: MICs in liquid culture. The text has this: Compound 3 is an inhibitor of colibactin-associated genotoxicity. Since colibactin is produced in the context of the gut microbiota, it is essential to understand how 3 can affect other members of this community and whether it remains an effective inhibitor under these conditions. […] A turbidity assay was used to determine minimum inhibitory concentrations (MICs) in liquid culture of 1-4 against a variety of bacterial strains from common gut phyla, including E. coli (Table 3).
MICs of compounds against different bacterial species were determined using a modified version of a broth microdilution protocol which has been previously reported.^1 Briefly, cultures of each species indicated were inoculated from frozen stocks in deoxygenated Wilkins-Chalgren Anaerobic Medium (WCAM) inside of an anerobic chamber with an 92.5% N2/5% CO2/2.5% H2 atmosphere. Cultures were grown for 24-48 hours in a 37° C. incubator at which point an OD600-measurement was taken for each culture and was accordingly diluted in fresh WCAM to an equivalent of OD600=0.01. Diluted cultures were then distributed into the wells of a clear, flat-bottom 384-well plate and the compound of interest was added to a final DMSO concentration of 2% (or DMSO only for positive controls). […] mineral oil (Millipore Sigma) was deposited on top of the cultures and plates were covered with a clear adhesive plate seal. Plates were incubated at 37° C. for 16 hours, at which point the OD600 of all wells was recorded on a SpectraMax M2 plate reader (Molecular Devices).

The subject of data set [2] is HeLa cells infected with NC101. In words: DNA adduct detection by LC-MS. As to conditions: 1 μM 3. The format is cell-based, human. On the procedure:
DNA adduct detection. Infections for DNA adduct detection were carried out using the protocol described above in 6-well plates where all volumes and cell numbers were increased by a factor of 4 accordingly. After trypsinization, cell pellets were frozen at −80° C. until analysis. DNA was isolated from cells as previously reported.^15 DNA samples (100 μL, 31-48 μg) in silanized glass vials were incubated at 80° C. for 1 hour. After the incubation, samples were allowed to cool to room temperature, and volumes were increased to 200 μL by adding LC-MS grade water. Samples were filtered using a Centrifree Ultrafiltration Device (30K molecular weight, Millipore Sigma) at 2000× g for 15 minutes. Samples were dried under vacuum and stored at −20° C. Mass spectrometric data was acquired with the following conditions. The dried samples were reconstituted in 10 μL of H2O and 4 μL of the resulting solution were injected onto an UltiMate 3000 RSLCnano UPLC (Thermo Fisher Scientific) system equipped with a 5 μL injection loop. Separation was performed with a capillary column (75 μm ID, 20 cm length, 10 μm orifice) created by hand packing a commercially available fused-silica emitter (New Objective, Woburn, MA) with 5 μm Luna C18 bonded separation media (Phenomenex, Torrance, CA). […]

For data set [3], the system named is purified plasmid DNA incubated with pks+ E. coli. In words: Plasmid DNA crosslinking, denaturing gel electrophoresis. On the procedure:
In addition to blocking the metabolic indicators of colibactin biosynthesis, it was also assessed whether 3 could inhibit the genotoxic effects of colibactin on human cells at physiologically accessible concentrations. A previously described infection assay with HeLa cells and pks+E. coli which was modified to include a 1-hour preincubation of the inhibitor with the E. coli as well as inclusion of the inhibitor in the infection medium was used. […] Treatment with 3 was able to completely block this effect at concentrations as low as 5 nM (FIG. 4). It was also confirmed that 3 is not cytotoxic to human cell lines at concentrations up to 10 μM. […] In order to directly assess the impacts of 3 on colibactin's DNA crosslinking activity, purified plasmid DNA was incubated with pks^+ E. coli, then subjected to gel electrophoresis under denaturing conditions.

The test system of another data set is Bifidobacterium longum. The data set can be described thus: Bacterial MIC assay (broth dilution). Format: cell-based. Conditions: 15 h, read-out: MICs by compound. In general terms: In broth dilution the organism is exposed to a series of concentrations in liquid medium.
A further data set deals with HeLa cells. In words: HeLa cell survival assay. As to conditions: all concentrations tested. The format is cell-based, human. On the procedure:
HeLa cells were maintained as described in the General Tissue Culture Methods section. After trypsinization and counting, cells were distributed in to the wells of a 96-well plate with media containing the indicated concentration of the synthetic compound and 1% DMSO (or DMSO alone) at 5000 cells per well. After 20 hours, cell viability was determined using the CellTiter-Glo® 3D Cell Viability Assay kit (Promega) following the manufacturer's instructions and measuring luminescence on a Bio-Tek Synergy HTX™ multimode plate reader.

Data set [4] concerns serine hydrolases in HEK293T cell lysates. In words: Gel-based ABPP with fluorophosphonate probe (FP). Format: binding, human. As to conditions: inhibitor up to 100 μM. From the text: To further explore other possible targets of inhibitors 1-4, an activity-based protein profiling (ABPP) approach was used to assay their activity against a wide variety of serine hydrolases in bacterial and mammalian proteomes. […] One limitation of this assay is that ClbP is not labeled by the FP probe, so it cannot be observed as a reference for binding. Any other proteins which evade labeling by FP would also not be detected in this assay.
Activity-Based Protein Profiling. Bacterial or mammalian cell lysates were normalized to 1 mg/mL protein concentrations in PBS using the DC protein assay (Bio-Rad). 50 μL aliquots of lysates were incubated with compounds at the indicated concentrations (1 μL of a 50X stock in DMSO) for 30 minutes at room temperature and subsequently labeled with 5 μM of fluorophosphonate-PEG(4)-biotin probe (1 μL of a 50X stock in DMSO, synthesized as previously reported)^56 for 1 hour at room temperature. The reactions were mixed with 50 μL of 2X SDS protein loading buffer, boiled for 10 minutes at 95° C., and separated by SDS-PAGE. The labeled proteins were detected by IRdye-conjugated streptavidin (Li-Cor) and visualized using the GellOdyssey™ Imaging System (Li-Cor).^56

Entries after “also recorded” stand apart in the source; their conditions may differ.

As for `CC1(C)OB([C@@H](CC(N)=O)NC(=O)CCCc2ccccc2)OC1(C)C` [Compound 3], the MIC (in data set [1]; with Bifidobacterium longum) was above 200 µM in each case. Moreover, in data set [2], the “colibactin-derived DNA adduct formation” value is recorded as “could effectively suppress formation of a colibactin-derived DNA adduct; also recorded: sufficient to suppress adduct formation to a degree similar to genetic deletion of clbP; also recorded: prevents”. For the same compound, the DNA crosslinking activity result in data set [3] is listed as “can suppress DNA crosslinking activity”. For the same compound, in the data set with HeLa cells, the “concentration without cytotoxicity to human cell lines” value was above 10 µM. The “change in protein labeling by FP probe” value in data set [4] is given as “does not identify any significant targets”.
